These results are taken from patent US20230414754A1, “CONDITIONAL CONTROL OF UNIVERSAL CAR T CELLS THROUGH STIMULUS-REACTIVE ADAPTORS” (UNIVERSITY OF PITTSBURGH-OF THE COMMONWEALTH SYSTEM OF …, priority 2020, published 2023).

Test [1] has as its system SNAP-synNotch receptor. Description: SNAP-synNotch receptor activation in Jurkat cells co-incubated with target cells (TagBFP output). Type of test: cell-based. From the text:
51. […] The system triggers Gal4-VP64 transcription factor-driven TagRFP expression. […] TagRFP levels are reported as mean fluorescence intensity (MFI), n=3 biologically independent experiments±s.d.
176. We created a universal adaptor synNotch to direct receptor activation and the resulting transcriptional gene output in response to interaction with BG-conjugated adaptor antibodies on the surface of target cells (FIG. 22). We cloned a SNAP-synNotch receptor consisting of the SNAPtag domain fused to the Notch core protein, and the Gal4-transcription factor (to turn on a gal4 promoter-driven TagBFP gene) and transduced Jurkat cells. […] Receptor activation was sensitive and tunable, with a significant response at an antibody concentration as low as 0.04 μglmL and increasing to a peak at 0.25 μg/mL. Response gene activation then decreased with increasing antibody indicative of a “hook effect”—as expected in ternary complex formation. BG-conjugated antibodies targeting other antigens were also capable of activating the SNAP-synNotch receptor in an antigen-specific manner indicating universality of the cell re-programming approach.

Test [2] relates to CD20+ Raji target cells. Nature of the test: SNAP-CAR T cell activation (CD69) with MTGase-produced site-specific adaptor. It is filed as cell-based, human. Particulars: CD69 after 24 h. Here is the method: (§1) 55. FIGS. 26A and 26B show MTGase enzymatic antibody-adaptor conjugation. […] CD69 T cell activation marker expression on the CAR T cells was evaluated after 24 h. n=3 biol. reps.
(§2) 187. In a complementary, enzymatic conjugation approach we synthesized the terminal amine 11 from the commercially available PEG 10 (FIG. 12A), and target a conserved glutamine located in each of the heavy chains of the de-glycosylated IgG1 antibody through selective modification by the enzyme MTGase (FIG. 12B). This generates uniform conjugates in quantitative yields adding exactly two modifications using conserved glutamines as the only γ-carbonyl amide donors on dei-glycosylated IgGls, This method that has been used for dozens of clinical use ADCs. […] In addition, the site-specific adaptor was efficient at inducing T cell activity (FIG. 26B).

The subject of test [3] is SNAPtag. Nature of the test: Incubation of MTGase-made adaptor with SNAP protein, SDS-PAGE. It is filed as biochemical. Particulars: SNAPtag 2 eq. per BG. The procedure:
as §1, §2

For mSA2, the “function of universal adaptor synNotch system” value in test [1] is on record as “ineffective”.

For “RTX-BG: PEG2-BG labeled Rituximab adaptor made via MTGase conjugation”, the “inducing T cell activity” value in test [2] is listed as “efficient”. In addition, the “BG labeling by incubation with SNAP protein” value in test [3] was “near complete”.
